# Experiments:
# Assay in all cases: relative viability (nuclei count vs DMSO), 5 days (fraction); higher = more cells survive
# [1] = compound: O=C(CCCCCCC(=O)Nc1ccccc1)NO [Vorinostat] + C[C@]1(O)C[C@@H](c2nc(-c3ccc4ccc(-c5ccccc5)nc4c3)c3c(N)nccn32)C1 [Linsitinib] (partner 1 µM)
# Summary of the method: (§1)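 Lung cancer cell lines were pin-tool dosed in 1536-well plates on the day after seeding, with either a lone drug or a fixed anchor-drug dose plus five library-drug doses (not always all listed) in √10 steps. Nuclei were counted on 4× images after 5 days. Relative viability is the ratio of treated-well to vehicle-well nuclei counts, with each value a median of duplicate plates.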
# [2] = compound: O=C(CCCCCCC(=O)Nc1ccccc1)NO [Vorinostat] + NC(=O)Nc1cc(-c2cccc(F)c2)sc1C(=O)N[C@H]1CCCNC1 [AZD7762] (partner 0.2 µM)
# Summary of the method: as §1
# [3] = compound: O=C(CCCCCCC(=O)Nc1ccccc1)NO [Vorinostat] + C[C@@H](Oc1cc(-c2cnn(C3CCNCC3)c2)cnc1N)c1c(Cl)ccc(F)c1Cl [Crizotinib] (partner 1 µM)
# Summary of the method: as §1
# [4] = compound: O=C(CCCCCCC(=O)Nc1ccccc1)NO [Vorinostat] + CCNC(=O)c1noc(-c2cc(C(C)C)c(O)cc2O)c1-c1ccc(CN2CCOCC2)cc1 [Luminespib] (partner 0.01 µM)
# Summary of the method: as §1
# [5] = compound: O=C(CCCCCCC(=O)Nc1ccccc1)NO [Vorinostat] + O=C(c1cc(Cc2n[nH]c(=O)c3ccccc23)ccc1F)N1CCN(C(=O)C2CC2)CC1 [Olaparib] (partner 8 µM)
# Summary of the method: as §1
Cell Line,relative viability ([1]; first compound 0.253 µM),relative viability ([1]; first compound 0.8 µM),relative viability ([1]; first compound 2.53 µM),relative viability ([1]; first compound 8 µM),relative viability ([2]; first compound 0.253 µM),relative viability ([2]; first compound 0.8 µM),relative viability ([2]; first compound 2.53 µM),relative viability ([2]; first compound 8 µM),relative viability ([3]; first compound 0.253 µM),relative viability ([3]; first compound 0.8 µM),relative viability ([3]; first compound 2.53 µM),relative viability ([3]; first compound 8 µM),relative viability ([4]; first compound 0.253 µM),relative viability ([4]; first compound 0.8 µM),relative viability ([4]; first compound 2.53 µM),relative viability ([4]; first compound 8 µM),relative viability ([5]; first compound 0.253 µM),relative viability ([5]; first compound 0.8 µM),relative viability ([5]; first compound 2.53 µM),relative viability ([5]; first compound 8 µM)
PC-3 [JPC-3],0.886,0.938,0.625,0.281,0.834,0.526,0.306,0.271,0.955,0.97,0.41,0.228,0.746,0.801,0.282,0.261,1.13,1.05,0.379,0.326
NCI-H441,0.501,0.619,0.255,0.117,1.21,0.903,0.238,0.122,0.722,0.776,0.141,0.11,0.485,0.423,0.194,0.162,0.56,0.542,0.17,0.0865
NCI-H2342,,,,,0.431,0.575,0.347,0.254,,,,,0.817,0.589,0.499,0.391,0.467,0.496,0.308,0.269
NCI-H358,0.969,0.83,0.219,0.156,0.466,0.312,0.14,0.159,0.526,0.393,0.133,0.134,0.429,0.521,0.308,0.126,0.722,0.609,0.227,0.0636
NCI-H1793,0.781,0.95,0.703,0.215,0.188,0.492,0.204,0.131,,,,,0.206,0.187,0.159,0.146,1.16,0.937,0.358,0.111
SK-LU-1,1.11,1.02,0.64,0.211,,,,,0.921,0.672,0.43,0.164,0.21,0.234,0.176,0.196,0.417,0.399,0.323,0.14
ChaGo-K-1,,,,,0.862,0.867,0.567,0.173,1.23,0.98,0.408,0.261,0.82,0.804,0.417,0.165,0.46,0.34,0.219,0.141
NCI-H1563,1.19,1.03,0.749,0.525,,,,,0.796,0.824,0.469,0.492,0.587,0.496,0.433,0.416,,,,
NCI-H596,1.02,1.04,0.677,0.335,1.13,0.732,0.543,0.384,1.05,0.945,0.517,0.31,0.933,1.05,0.476,0.265,0.725,0.512,0.326,0.204
NCI-H2023,0.841,0.682,0.296,0.0892,,,,,0.716,0.525,0.188,0.0669,1.04,0.534,0.188,0.0701,0.403,0.296,0.113,0.0691
NCI-H1437,1.19,0.789,0.138,0.0938,1.23,0.9,0.426,0.197,0.876,0.894,0.429,0.0993,1.14,1.07,0.712,0.187,0.625,0.466,0.199,0.16
EKVX,1.14,1.04,0.515,0.141,0.838,0.489,0.199,0.136,0.958,0.891,0.428,0.152,0.984,0.952,0.659,0.17,1.02,0.833,0.335,0.15
HCC-44,0.727,0.621,0.167,0.103,1.01,1.02,0.879,0.526,0.728,0.783,0.224,0.0957,1.23,0.804,0.205,0.141,1.04,1.05,0.658,0.317
NCI-H2405,1.13,1.09,0.245,0.0821,0.904,0.742,0.262,0.11,0.917,0.88,0.415,0.0921,0.995,1.03,0.596,0.164,1.02,0.888,0.313,0.0962
NCI-H1944,1.21,0.948,0.697,0.207,0.328,0.27,0.19,0.104,0.965,0.631,0.292,0.125,0.716,0.573,0.304,0.147,0.367,0.33,0.166,0.114
NCI-H1734,0.982,0.856,0.658,0.133,0.306,0.292,0.162,0.0959,0.779,0.683,0.214,0.127,0.24,0.185,0.165,0.0945,0.739,0.66,0.31,0.0928
NCI-H322M,1.04,1.01,0.51,0.275,0.56,0.565,0.408,0.304,0.888,0.758,0.447,0.194,1.25,1.11,0.731,0.28,0.9,0.873,0.498,0.386
NCI-H2085,0.818,0.804,0.621,0.243,0.962,0.898,0.518,0.207,0.8,0.831,0.436,0.181,0.447,0.411,0.317,0.19,0.803,0.79,0.442,0.219
HOP-62,1.17,0.769,0.528,0.0603,0.258,0.518,0.145,0.0514,0.972,0.831,0.251,0.0671,0.942,0.904,0.396,0.103,0.468,0.35,0.16,0.0785

Cell Line,relative viability ([1]; first compound 0.253 µM),relative viability ([1]; first compound 0.8 µM),relative viability ([1]; first compound 2.53 µM),relative viability ([1]; first compound 8 µM),relative viability ([2]; first compound 0.253 µM),relative viability ([2]; first compound 0.8 µM),relative viability ([2]; first compound 2.53 µM),relative viability ([2]; first compound 8 µM),relative viability ([3]; first compound 0.253 µM),relative viability ([3]; first compound 0.8 µM),relative viability ([3]; first compound 2.53 µM),relative viability ([3]; first compound 8 µM),relative viability ([4]; first compound 0.253 µM),relative viability ([4]; first compound 0.8 µM),relative viability ([4]; first compound 2.53 µM),relative viability ([4]; first compound 8 µM),relative viability ([5]; first compound 0.253 µM),relative viability ([5]; first compound 0.8 µM),relative viability ([5]; first compound 2.53 µM),relative viability ([5]; first compound 8 µM)
SK-MES-1,1.09,1.02,0.495,0.21,,,,,1.13,1.06,0.495,0.157,1.01,0.774,0.423,0.178,0.84,0.774,0.327,0.181
NCI-H2170,,,,,1.23,0.923,0.332,0.106,1.29,0.967,0.229,0.149,0.894,0.692,0.577,0.171,0.632,0.554,0.146,0.0982
HCC-78,0.547,0.238,0.135,0.107,0.451,0.464,0.223,0.199,0.319,0.229,0.117,0.137,,,,,0.778,0.615,0.221,0.201
NCI-H1703,1.14,0.846,0.953,0.206,0.126,,0.189,0.0985,0.977,0.716,0.298,0.113,,,,,0.407,0.51,0.625,0.157
IA-LM,0.685,0.271,0.212,0.0566,,,,,0.751,0.743,0.152,0.0423,,,,,0.911,0.701,0.405,0.0749
UMC-11,1,0.6,0.164,0.0865,,,,,0.578,0.481,0.0587,0.0369,1.03,0.566,0.149,0.108,0.374,0.235,0.0709,0.064
NCI-H522,,,,,0.987,1.05,0.834,0.235,,,,,1.44,0.972,0.361,0.259,0.778,0.654,0.318,0.168
A549,0.673,0.651,0.194,0.0382,,,,,0.528,0.107,0.054,0.0379,,,,,0.278,0.177,0.0609,0.0236
HCC-366,0.637,0.545,0.0527,0.0206,0.459,0.195,0.0622,0.0231,0.217,0.1,0.0143,0.0124,,,,,0.249,0.116,0.0308,0.0193
SW 900,,,,,0.606,0.418,0.229,0.0892,,,,,0.172,0.161,0.16,0.133,0.901,0.589,0.192,0.113
NCI-H2228,0.805,0.542,0.425,0.0918,,,,,0.593,0.502,0.246,0.168,0.138,0.172,0.168,0.113,0.501,0.499,0.223,0.124
COR-L23,0.899,0.468,0.0916,0.0663,,,,,0.542,0.25,0.0669,0.0606,0.64,0.305,0.107,0.0643,0.301,0.246,0.0921,0.0666
NCI-H1395,1.31,1.22,0.725,0.344,0.37,0.373,0.375,0.296,,,,,0.912,0.829,0.643,0.346,0.513,0.465,0.436,0.318
COR-L 105,1.1,1.16,0.394,0.222,,,,,0.65,0.383,0.221,0.199,0.968,0.892,0.646,0.219,0.727,0.821,0.589,0.266
NCI-H520,1.15,0.841,0.293,0.12,,,,,0.796,0.482,0.133,0.108,0.209,0.213,0.212,0.195,0.299,0.264,0.184,0.116
NCI-H2009,1.27,1.07,0.707,0.177,,,,,0.992,0.983,0.457,0.0597,1.04,0.935,0.752,0.144,0.729,0.582,0.395,0.0928
NCI-H661,0.759,0.752,0.298,0.184,,,,,1.01,1.03,0.483,0.327,0.905,0.725,0.34,0.298,0.767,0.569,0.392,0.323
NCI-H1650,,,,,,,,,0.848,0.519,0.29,0.101,0.2,0.178,0.171,0.184,0.737,0.62,0.316,0.16
SW 1573,0.986,0.978,0.421,0.13,,,,,0.845,0.665,0.297,0.156,0.212,0.381,0.222,0.0808,0.745,0.399,0.212,0.0539
